We go through one substance from patent publication US11246961B2, “Engineered scaffolds for vascularized tissue repair” (The Regents of the University of California, priority 2016, dated 2022).

In assay [1] the test system is platelets. The experiment in a line: flow cytometry ligand-cell binding, platelets. As to conditions: biotinylated ligand 1 μM. As to the method:
(§1) FIG. 10 presents flow cytometry data from an assay of binding affinity of LXW7 and GRGD (SEQ ID NO: 1) to different cell types. Tests included EPCs/ECs from different sources, including HECFCs (A), HCAECs (B), HMVECs (C), and THP-1 monocytes (D), Platelets (E), as well as K562 cells engineered to highly express αvβ3 (αvβ3-K562, F), and αIIbβ3 (αIIbβ3-K562, G). Cells were incubated with the LXW7-bio, GRGD-bio (SEQ ID NO: 1), or D-Biotin peptide and subsequently incubated with streptavidin-phycoerythrin. Flow cytometry analysis was performed to determine the binding affinity of the ligands. Samples treated with D-biotin were used as negative controls.
(§2) LXW7-bio (1 μM) was incubated with 3×10^5 HECFCs, HCAECs, HMVECs, αvβ3-K562 and αIIbβ3-K562 cells and THP-1 monocytes and 1×10^8 platelets in binding buffer (HEPES containing 10% FBS) on ice for 30 minutes. The samples were washed three times with DPBS containing 1% FBS and incubated with 2 μg/ml of streptavidin-phycoerythrin on ice for 30 minutes and then washed with DPBS. Samples were analyzed on a BD Fortessa LSR Cell Analyzer and further data analysis and gating were performed using FlowJo software (Treestar, Inc.).
For orientation: Flow cytometry measures light scatter and fluorescence of single cells or particles in a stream.

Assay [2] relates to platelets. The experiment in a line: platelets attachment assay on ligand treated culture surfaces. As to conditions: 16 hours. The format is cell-based. The text has this: (§3) Ligands LXW7, LXY30, and LLP2A were synthesized as in U.S. Pat. No. 9,073,974. Biotinylated LXW7 (LXW7-bio) and biotinylated GRGD (GRGD-bio) (SEQ ID NO: 1) were synthesized using established solid phase peptide synthesis protocols (Xiao et al. (2010) Mol Cancer Therapeutics 9:2714). Peptide-bio was designed to have biotin attached to the side chain of Lys, with two hydrophilic linkers between peptide and Lys (biotin). To modify culture surface with ligands, target culture wells in a 24-well plate were coated with 500 μL of 20 μg/mL Avidin (Thermo Fisher Scientific), and incubated for 1 hour at 37° C. Avidin coated wells were rinsed three times with DPBS and were treated with 500 μL molar equivalents (2 μM) of D-biotin (Thermo Fisher Scientific), LXW7-bio, or GRGD-bio (SEQ ID NO: 1). After 1 hour, the wells were washed three times with DPBS and blocked with 1% bovine serum albumin (BSA; Thermo Fisher Scientific) for 1 hour. After the wells were rinsed three times with DPBS, for cell attachment assay, 5×10^4 HCAECs and THP-1 monocytes suspended in the respective maintenance medium were added to the wells and incubated for 10 minutes or 16 hours at 37° C., 5% CO2, respectively. […] Five images were randomly taken from each sample and quantification of images was performed using the Image J software (NIH).

Assay [3] relates to THP-1 monocytes. The experiment in a line: flow cytometry ligand-cell binding, THP-1 monocytes. The conditions noted are these: biotinylated ligand 1 μM. As to the method: as §1, §2
Assay [4] concerns the target T1, integrin αIIbβ3 (Homo sapiens, UniProt P05106+P08514).
T1 construct: expressed in transfected cells; host or cells: K562 myeloid leukemia cells (αIIbβ3-K562), provided by Dr. Jennifer Cochran (Stanford University)
The experiment in a line: flow cytometry ligand-cell binding, αIIbβ3-K562 cells. As to conditions: K562 cells highly expressing αIIbβ3. How it is done:
as §1
Human coronary artery endothelial cells (HCAECs) were purchased from ATCC. Human cardiac microvascular endothelial cells (HMVECs) were purchased from Lonza. THP-1 monocytes were obtained from Dr. Pamela Lein (University of California, Davis). […]
LXW7-bio (1 μM) was incubated with 3×10^5 HECFCs, HCAECs, HMVECs, αvβ3-K562 and αIIbβ3-K562 cells and THP-1 monocytes and 1×10^8 platelets in binding buffer (HEPES containing 10% FBS) on ice for 30 minutes. […] Samples were analyzed on a BD Fortessa LSR Cell Analyzer and further data analysis and gating were performed using FlowJo software (Treestar, Inc.).

Assay [5] has as its system THP-1 monocytes. The experiment in a line: on-bead whole cell binding assay, THP-1 monocytes. The format is cell-based. As to conditions: 10 minutes, 30 minutes or 2 hours. From the text:
Human coronary artery endothelial cells (HCAECs) were purchased from ATCC. Human cardiac microvascular endothelial cells (HMVECs) were purchased from Lonza. THP-1 monocytes were obtained from Dr. Pamela Lein (University of California, Davis). The myeloid leukemia K562 cells that have been transfected with human integrin αvβ3 gene (αvβ3-K562 cells) were provided by Dr. Yoshikazu Takada and the K562 cells transfected with human integrin αIIbβ3 gene (αIIb3-K562 cells) were provided Dr. Jennifer Cochran (Stanford University)
HECFCs, HCAECs, HMVECs and THP-1 monocytes were cultured in their respective growth medium as described in Example 1. For cell bead-binding assay, 6×10^5 HECFCs, HCAECs, HMVECs or THP-1 monocytes in 2 mL of their respective culture medium were added to an ultra-low attachment 35-mm petri dish (Corning Incorporated) followed by resin beads (Lam et al. (1991) Nature 354:82). The dishes were incubated in a shaking incubator at 37° C., 5% CO2 for various time points at 40 rpm. For platelet bead-binding assay, the platelets isolated as described in Example 1 were added to an ultra-low attachment 35-mm petri dish and incubated with the resin beads in the shaking incubator as described for the cell-bead binding assy. Phase contrast images were taken at different time points using an Olympus IX81 microscope. […]

The test system of assay [6] is THP-1 monocytes. As to the kind of experiment: attachment assay on ligand treated culture surfaces, THP-1 monocytes. The format is cell-based. The conditions noted are these: 16 hours.
Text: as §3

Regarding cGRGDdvc [LXW7], the “binding affinity with platelets by flow cytometry” value in assay [1] was “very low binding affinity with platelets”. Further, in assay [2], the “platelet adhesion on ligand treated surface” value is “limited platelet adhesion”. Besides, the “binding to THP-1 monocytes by flow cytometry” value in assay [3] is “did not bind to THP-1 monocytes”. In assay [4], the “binding to αIIbβ3-K562 cells by flow cytometry” value is on record as “very low binding”. Also, the “attachment of THP-1 monocytes to beads displaying LXW7” value in assay [5] is “did not support effective attachment of THP-1 monocytes”. In assay [6], the “THP-1 monocyte attachment on ligand treated surface” value is recorded as “did not support THP-1 monocyte attachment”.
